system: HUV-EC-C cells; experiment: HUV-EC-C assay, a-FGF (ECGF)-induced [3H]thymidine incorporation; type: cell-based, human; conditions: a-FGF-stimulated HUV-EC cells; read-out: Mitogenesis in Endothelial Cells, [3H] Thymidine Incorporation, HUV-EC Assay, a-FGF
Method: Repeat the wash two more times with D-PBS, resuspend the cells in about 1 ml assay medium/15 cm^2 of tissue culture flask.
Add cells to 96-well flat-bottom plates at 100 μl/well or 0.8-1.0×10^4 cells/well; incubate ˜24 h at 37° C., 5% CO2.
Use the same assay medium as mentioned in day 0, step 2 above. Titrations are made by adding 90 μl/well of drug at 200 μM (4× the final well concentration) to the top well of a particular plate column. Since the stock drug concentration-is usually 20 mM in DMSO, the 200 μM drug concentration contains 2% DMSO.
Therefore, diluent made up to 2% DMSO in assay medium (F12K+0.5% fetal bovine serum) is used as diluent for the drug titrations in order to dilute the drug but keep the DMSO concentration constant. Add this diluent to the remaining wells in the column at 60 μl/well. Take 60 μl from the 120 μl of 200 μM drug dilution in the top well of the column and mix with the 60 μl in the second well of the column. Take 60 μl from this well and mix with the 60 μl in the third well of the column, and so on until two-fold titrations-are completed. When the next-to-the-last well is mixed, take 60 μl of the 120 μl in this well and discard it. Leave the last well with 60 μl of DMSO/media diluent as a non-drug-containing control. […] 9 columns of titrated drug, enough for triplicate wells each for 1) VEGF (obtained from Pepro Tech Inc., catalogue no. 100-200, 2) endothelial cell growth factor (ECGF) (also known as acidic fibroblast growth factor, or aFGF) (obtained from Boehringer Mannheim Biochemica, catalogue no. […] ECGF comes as a preparation with sodium heparin.
Transfer 50 μl/well of the drug dilutions to the 96-well assay plates containing the 0.8-1.0×10^4 cells/100 μl/well of the HUV-EC-C cells from day 0 and incubate ˜2 h at 37° C., 5% CO2.
In triplicate, add 50 μl/well of 80 μg/ml VEGF, 20 ng/ml ECGF, or media control to each drug condition. As with the drugs, the growth factor concentrations are 4× the desired final concentration. Use the assay media from day 0 step 2 to make the concentrations of growth factors.
Freeze plates overnight at −20° C.

Row | Molecule | IC50 [µM]
1 | O=C1Nc2ccc(Cl)cc2C1=Cc1ccc(Br)cc1 [SU4972, 3-(4-Bromobenzylidenyl)-5-chloro-2-indolinone] | 1.4

molecular target: T1, FLK-1 receptor (Mus musculus, UniProt P35918); experiment: FLK-1 ELISA in FLK-1/NIH3T3 cells; type: cell-based; conditions: not given
T1 construct: expressed in transfected cells; host or cells: NIH3T3 C7 #3
T1 sequence (P35918 20-1345): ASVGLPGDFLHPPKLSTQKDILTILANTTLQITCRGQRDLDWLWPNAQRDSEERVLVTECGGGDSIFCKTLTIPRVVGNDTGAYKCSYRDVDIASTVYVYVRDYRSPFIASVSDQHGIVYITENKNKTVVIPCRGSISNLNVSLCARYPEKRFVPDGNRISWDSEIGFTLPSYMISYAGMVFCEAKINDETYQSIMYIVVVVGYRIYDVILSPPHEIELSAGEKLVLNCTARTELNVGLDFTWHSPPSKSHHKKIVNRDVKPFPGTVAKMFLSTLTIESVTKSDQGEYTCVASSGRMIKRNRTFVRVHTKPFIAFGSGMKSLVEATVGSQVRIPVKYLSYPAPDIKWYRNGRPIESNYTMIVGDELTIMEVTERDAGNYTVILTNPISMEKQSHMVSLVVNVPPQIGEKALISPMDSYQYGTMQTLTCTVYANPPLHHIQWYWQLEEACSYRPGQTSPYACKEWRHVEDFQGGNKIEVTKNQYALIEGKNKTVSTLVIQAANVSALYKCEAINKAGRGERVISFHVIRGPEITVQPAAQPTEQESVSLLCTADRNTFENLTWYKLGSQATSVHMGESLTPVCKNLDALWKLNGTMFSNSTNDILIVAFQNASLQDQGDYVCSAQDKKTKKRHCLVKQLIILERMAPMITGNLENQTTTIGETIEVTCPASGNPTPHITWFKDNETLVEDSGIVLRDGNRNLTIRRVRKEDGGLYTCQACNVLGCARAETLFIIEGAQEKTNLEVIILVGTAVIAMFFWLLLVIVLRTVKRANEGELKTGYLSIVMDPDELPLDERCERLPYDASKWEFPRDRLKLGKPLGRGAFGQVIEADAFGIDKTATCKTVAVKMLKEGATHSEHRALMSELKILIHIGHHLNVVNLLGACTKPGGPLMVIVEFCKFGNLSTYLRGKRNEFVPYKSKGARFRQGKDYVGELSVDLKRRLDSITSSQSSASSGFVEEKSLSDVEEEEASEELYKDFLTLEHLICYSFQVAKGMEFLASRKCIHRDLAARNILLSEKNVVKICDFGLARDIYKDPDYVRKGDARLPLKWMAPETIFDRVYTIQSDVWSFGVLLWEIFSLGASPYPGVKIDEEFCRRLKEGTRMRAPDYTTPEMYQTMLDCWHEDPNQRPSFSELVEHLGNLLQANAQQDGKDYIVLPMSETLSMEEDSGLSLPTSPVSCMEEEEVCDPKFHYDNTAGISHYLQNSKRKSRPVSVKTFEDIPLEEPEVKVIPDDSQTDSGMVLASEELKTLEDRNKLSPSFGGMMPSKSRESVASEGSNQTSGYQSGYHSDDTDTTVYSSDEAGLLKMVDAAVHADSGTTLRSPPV

Row | Molecule | IC50 [µM]
2 | 3-[(2-Sulphonylfuran-5-yl)methylene]-2-indolinone sodium salt [SU5428] | 8.6

same assay, conditions: ELISA, FLK-1/NIH3T3 cells, VEGF stimulated

Row | Molecule | IC50 [µM]
3 | CN(C)c1ccc(C=C2C(=O)Nc3ccccc32)cc1 [SU4312, 3-(4-Dimethylaminobenzylidenyl)-2-indolinone] | 0.8
4 | COc1ccc(OC)c(C=C2C(=O)Nc3ccccc32)c1 [SU4793, 3-(2,5-Dimethoxybenzylidenyl)-2-indolinone] | 4.2
5 | COc1cccc(C=C2C(=O)Nc3ccccc32)c1OC [SU4794, 3-(2,3-dimethoxybenzylidenyl)-2-indolinone] | 11.8
6 | O=C1Nc2ccccc2C1=Cc1ccco1 [SU4798, 3-[(furan-2-yl)methylene]-2-indolinone] | 28.8
7 | CC(=O)Nc1ccc(C=C2C(=O)Nc3ccccc32)cc1 [SU4799, 3-(4-acetamidobenzylidenyl)-2-indolinone] | 9
8 | O=C1Nc2ccccc2C1=Cc1ccc(O)cc1Cl [SU4932, 3-(2-chloro-4-hydroxybenzylidenyl)-2-indolinone] | 2.2
9 | CC(=O)Nc1ccc(C=C2C(=O)Nc3ccccc32)cc1 [SU4944, 3-(4-Acetylaminobenzylidenyl)-2-indolinone] | 8.5
10 | CN(C)c1ccc(C=C2C(=O)N(C)c3ccccc32)cc1 [SU4952, 3-(4-Dimethylaminobenzylidenyl)-1-methyl-2-indolinone] | 22.6
11 | CN(C)c1ccc(C=C2C(=O)Nc3ccc(Cl)cc32)cc1 [SU4967, 5-Chloro-3-(4-dimethylaminobenzylidenyl)-2-indolinone] | 11.2
12 | CCCCN(CCCC)c1ccc(C=C2C(=O)Nc3ccccc32)cc1 [SU4979, 3-(4-Di-n-butylaminobenzylidenyl)-2-indolinone] | 20.9
13 | O=C1Nc2ccccc2C1=Cc1ccc(N2CCOCC2)cc1 [SU4981, 3-[4-(Morpholin-4-yl)benzylidenyl]-2-indolinone] | 2.1
14 | O=C1Nc2ccc(Cl)cc2C1=Cc1ccc(N2CCOCC2)cc1 [SU4983, 5-Chloro-3-(4-(morpholine-4-yl)benzylidenyl)-2-indolinone] | 4.1
15 | CCOc1ccccc1C=C1C(=O)Nc2ccccc21 [SU5204, 3-(2-Ethoxybenzylidenyl]-2-indolinone] | 4
16 | O=C1Nc2ccccc2C1=Cc1ccc(F)cc1 [SU5205, 3-(4-Fluorobenzylidenyl)-2-indolinone] | 9.6
17 | O=C1Nc2ccccc2C1=Cc1cccs1 [SU5208, 3-[(Thien-2-yl)methylene]-2-indolinone] | 4.7
18 | Cc1csc(C=C2C(=O)Nc3ccccc32)c1 [SU5401, 3-[(4-Methylthien-2-yl)methylene]-2-indolinone] | 2.9
19 | Cc1c(CCC(=O)O)c[nH]c1C=C1C(=O)Nc2ccccc21 [SU5402, 3-[(3-(2-carboxyethyl)-4-methylpyrrol-5-yl)methylene]-2-indolinone] | 0.4
20 | Cc1[nH]c(C=C2C(=O)Nc3ccccc32)c(Br)c1Br [SU5403, 3-[(3,4-Dibromo-5-methylpyrrol-2-yl)methylene]-2-indolinone] | 1.8
21 | Cc1cc[nH]c1C=C1C(=O)Nc2ccccc21 [SU5404, 3-[(3-Methylpyrrol-2-yl)methylene]-2-indolinone] | 0.24
22 | Cc1c(C=O)[nH]c(C=C2C(=O)Nc3ccccc32)c1C [SU5405, 3-[(3,4-Dimethyl-2-formylpyrrole-5-yl)methylene)-2-indolinone] | 23.8

Row | Molecule | IC50 [µM]
23 | Cc1c[nH]c(C=C2C(=O)Nc3ccccc32)c1C [SU5406, 3-[(3,4-Dimethylpyrrol-2-yl)methylene]-2-indolinone] | 0.17
24 | COC(=O)CCc1c(C)c[nH]c1C=C1C(=O)Nc2ccccc21 [SU5407, 3-{[4-(2-methoxycarbonylethyl)-3-methylpyrrol-5-yl]methylene}-2-indolinone] | 1.1
25 | CCOC(=O)c1c(C)[nH]c(C=C2C(=O)Nc3ccccc32)c1C [SU5408, 3-[(2,4-Dimethyl-3-ethoxycarbonylpyrrol-5-yl)methylene]-2-indolinone] | 0.07
26 | O=C1Nc2ccccc2C1=Cc1sccc1Br [SU5418, 3-[(3-Bromothiene-2-yl)methylene]-2-indolinone] | 15.4
27 | CSc1ccc(C=C2C(=O)Nc3ccccc32)s1 [SU5419, 3-[(2-Methylmercaptothien-5-yl)methylene]-2-indolinone] | 2.3
28 | Cc1cc(C=C2C(=O)Nc3ccccc32)oc1C [SU5421, 3-[(2,3-Dimethylfuran-5-yl)methylene]-2-indolinone] | 4.6
29 | Cc1ccc(C=C2C(=O)Nc3ccccc32)s1 [SU5424, 3-[(2-Methylthien-5-yl)methylene]-2-indolinone] | 2.4
30 | O=C1Nc2ccccc2C1=Cc1ccc(Br)s1 [SU5425, 3-[(2-Bromothiene-5-yl)methylene]-2-indolinone] | 51.4
31 | Cc1ccsc1C=C1C(=O)Nc2ccccc21 [SU5427, 3-[(3-Methylthien-2-yl)methylene]-2-indolinone] | 4.5
32 | Cc1ccc(C=C2C(=O)Nc3ccccc32)o1 [SU5430, 3-[(2-Methylfuran-5-yl)methylene]-2-indolinone] | 73.4
33 | CCc1ccc(C=C2C(=O)Nc3ccccc32)o1 [SU5431] | 41.2
34 | O=C1Nc2ccccc2C1=Cc1ccc([N+](=O)[O-])o1 [SU5432, 3-[(2-Nitrofuran-5-yl)methylene]-2-indolinone] | 22.8
35 | CCc1c(C=C2C(=O)Nc3ccccc32)[nH]c(C)c1C [SU5453, 3-[(4,5-Dimethyl-3-ethylpyrrol-2-yl)methylene]-2-indolinone] | 0.14
36 | CCc1c(C=C2C(=O)Nc3ccccc32)[nH]c(C(=O)O)c1C [SU5455, 3-[(5-Carboxy-3-ethyl-4-methylpyrrol-2-yl)methylene]-2-indolinone] | 36.2
37 | CCOC(=O)c1c[nH]c(C=C2C(=O)Nc3ccccc32)c1C [SU5463] | 0.18
38 | Cc1cnc(C=C2C(=O)Nc3ccccc32)[nH]1 [SU5468, 3-[(5-Methylimidazol-2-yl)methylene]-2-indolinone] | 2.7
39 | Cc1cc(C=C2C(=O)Nc3ccccc32)[nH]n1 [SU5472, 3-[(3-Methylpyrazol-5-yl)methylene]-2-indolinone] | 8.7
40 | O=C1Nc2ccccc2C1=Cc1n[nH]cc1Cl [SU5474, 3-[(4-Chloropyrazol-3-yl)methylene]-2-indolinone] | 7.4
41 | CCc1c(C)[nH]c(C=C2C(=O)Nc3ccccc32)c1C [SU5477, 3-[(4-Ethyl-3,5-dimethylpyrrol-2-yl)methylene]-2-indolinone] | 0.15

molecular target: T2, EGFR (Homo sapiens, UniProt P00533); experiment: EGF-Induced BrdU Incorporation Assay in 3T3/EGFR cells; type: cell-based; conditions: EGF ligand; read-out: Mitogenesis in 3T3/EGFR Cells, BrdU Incorporation, EGFR EGF Ligand IC50
T2 construct: expressed in transfected cells; host or cells: NIH 3T3/C7 (3T3/EGFRc7)
T2 sequence (P00533 25-1210): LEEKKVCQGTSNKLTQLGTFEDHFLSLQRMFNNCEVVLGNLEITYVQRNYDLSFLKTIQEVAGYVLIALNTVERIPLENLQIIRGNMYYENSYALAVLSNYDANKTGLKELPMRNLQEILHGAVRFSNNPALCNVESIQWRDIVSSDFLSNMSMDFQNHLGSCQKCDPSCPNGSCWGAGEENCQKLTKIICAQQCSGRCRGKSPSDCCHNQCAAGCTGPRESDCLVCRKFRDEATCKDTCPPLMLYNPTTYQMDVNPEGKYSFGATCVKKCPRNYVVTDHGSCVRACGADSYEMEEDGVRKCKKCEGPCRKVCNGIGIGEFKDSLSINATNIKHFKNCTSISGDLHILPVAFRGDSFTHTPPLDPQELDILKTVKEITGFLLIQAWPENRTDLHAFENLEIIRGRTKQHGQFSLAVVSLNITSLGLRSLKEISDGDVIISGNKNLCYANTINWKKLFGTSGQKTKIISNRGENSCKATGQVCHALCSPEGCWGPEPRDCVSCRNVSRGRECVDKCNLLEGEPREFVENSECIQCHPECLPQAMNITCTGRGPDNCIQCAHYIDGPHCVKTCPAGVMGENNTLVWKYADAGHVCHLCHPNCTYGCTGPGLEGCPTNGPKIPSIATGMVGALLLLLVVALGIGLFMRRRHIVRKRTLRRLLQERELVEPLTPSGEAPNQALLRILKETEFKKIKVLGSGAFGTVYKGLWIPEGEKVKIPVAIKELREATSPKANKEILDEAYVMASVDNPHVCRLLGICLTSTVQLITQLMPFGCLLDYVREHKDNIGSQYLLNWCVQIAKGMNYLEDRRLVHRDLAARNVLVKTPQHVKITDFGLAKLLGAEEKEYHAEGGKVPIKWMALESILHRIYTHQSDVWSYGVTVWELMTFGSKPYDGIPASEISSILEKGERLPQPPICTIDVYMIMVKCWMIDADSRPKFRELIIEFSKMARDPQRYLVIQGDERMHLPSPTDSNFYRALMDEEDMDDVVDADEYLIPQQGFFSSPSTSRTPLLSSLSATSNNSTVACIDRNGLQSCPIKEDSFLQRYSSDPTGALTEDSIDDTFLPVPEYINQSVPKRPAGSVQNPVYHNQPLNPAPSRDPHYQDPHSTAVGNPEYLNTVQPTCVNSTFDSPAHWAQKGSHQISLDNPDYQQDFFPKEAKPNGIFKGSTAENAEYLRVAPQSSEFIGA
Method: Assay 2: EGF-Induced BrdU Incorporation Assay
Protocol • (1) 3T3 engineered cell line: 3T3/EGFRc7 • (2) Cells are seeded at 8000 cells/well in 10% CS, 2 mM Gln in DMEM, in a 96 well plate. […] The negative control wells receive serum free DMEM with 0.1% BSA only; the positive control cells receive the ligand (EGF) but no test compound. […] FixDenat solution is added (50 μl/well) and the plates are incubated at room temperature for 45 minutes on a plate shaker. • (7) The FixDenat solution is thoroughly removed by decanting and tapping the inverted plate on a paper towel. Milk is added (5% dehydrated milk in PBS, 200 μl/well) as a blocking solution and the plate is incubated for 30 minutes at room temperature on a plate shaker. • (8) The blocking solution is removed by decanting and the wells are washed once with PBS. Anti-BrdU-POD solution (1:100 dilution in PBS, 1% BSA) is added (100 μl/well) and the plate is incubated for 90 minutes at room temperature on a plate shaker. • (9) The antibody conjugate is thoroughly removed by decanting and rinsing the wells 5 times with PBS, and the plate is dried by inverting and tapping on a paper towel. • (10) TMB substrate solution is added (100 μl/well) and incubated for 20 minutes at room temperature on a plate shaker until color development is sufficient for photometric detection. • (11) The absorbance of the samples are measured at 410 nm (in “dual wavelength” mode with a filter reading at 490 nm, as a reference wavelength) on a Dynatech ELISA plate reader.

Row | Molecule | IC50 [µM]
42 | CN(C)c1ccc(C=C2C(=O)Nc3ccc(Cl)cc32)cc1 [SU4967, 5-Chloro-3-(4-dimethylaminobenzylidenyl)-2-indolinone] | 60
43 | O=C1Nc2ccccc2C1=Cc1ccc(N2CCOCC2)cc1 [SU4981, 3-[4-(Morpholin-4-yl)benzylidenyl]-2-indolinone] | 20
44 | COC(=O)CCc1c(C)c[nH]c1C=C1C(=O)Nc2ccccc21 [SU5407, 3-{[4-(2-methoxycarbonylethyl)-3-methylpyrrol-5-yl]methylene}-2-indolinone] | 100
45 | CCOC(=O)c1c[nH]c(C=C2C(=O)Nc3ccccc32)c1C [SU5463] | 23
46 | CCOC(=O)CCc1c(C=C2C(=O)Nc3ccccc32)[nH]c(C(=O)OCC)c1CC(=O)OCC [SU5465, 3-[(5-Ethoxycarbonyl-3-ethoxycarbonylethyl-4-ethoxylcarbonylmethylpyrrol-2-yl)methylene]-2-indolinone] | 50
47 | Cc1cnc(C=C2C(=O)Nc3ccccc32)s1 [SU5469, 3-[(5-Methylthiazol-2-yl)methylene]-2-indolinone] | 28
48 | O=C1Nc2ccccc2C1=Cc1c(Br)cnn1Cc1ccc(Cl)cc1 [SU5475, 3-[(4-Bromo-1-(4-chlorobenzyl)pyrazol-5-yl)methylene]-2-indolinone] | 48

— patent publication US6906093B2, “Indolinone combinatorial libraries and related products and methods for the treatment of disease” (Sugen, Inc., priority 1995, dated 2005)
